# Reference: patent US20220135591A1, “HETEROCYCLIC COMPOUNDS AS INHIBITORS OF MONOACYLGLYCEROL LIPASE (MAGL)” (Hoffmann-La Roche Inc., priority 2019, published 2022)
# Target: T1, MAGL (recombinant wild-type) (Homo sapiens, UniProt Q99685)
# T1 sequence (Q99685 1-303): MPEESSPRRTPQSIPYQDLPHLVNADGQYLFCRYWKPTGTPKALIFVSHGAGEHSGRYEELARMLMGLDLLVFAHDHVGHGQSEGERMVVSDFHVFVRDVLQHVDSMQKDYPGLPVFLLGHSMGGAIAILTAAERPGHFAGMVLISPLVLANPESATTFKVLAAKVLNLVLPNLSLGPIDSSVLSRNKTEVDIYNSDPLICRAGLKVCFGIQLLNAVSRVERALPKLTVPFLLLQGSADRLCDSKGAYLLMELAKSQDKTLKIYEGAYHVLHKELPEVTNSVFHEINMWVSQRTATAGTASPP
# Assay: 4-NPA assay: MAGL inhibitory activity by hydrolysis of 4-nitrophenylacetate, absorbance at 405 nm
# Format: biochemical
# Conditions: 4-NPA assay (values without footnote [b])
# Procedure, shortened: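 Final assay: 1 nM MAGL and 300 μM 4-nitrophenylacetate in 50 mM Tris, 1 mM EDTA, at RT. Compounds (25 μM–1.7 nM, 3-fold steps) were preincubated 15 min with enzyme. A405 was read 5 min after substrate addition and again after 80 min; activity was taken as the difference between reads.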
row,SMILES,IC50 [nM]
1,"Cc1ccc2oc(N3CCN(C(=O)c4cc(OCCC(F)(F)F)cc(-c5ccc(CO)cc5)c4)CC3)nc2n1 [Example 182, [3-[4-(hydroxymethyl)phenyl]-5-(3,3,3-trifluoropropoxy)phenyl]-[4-(5-methyl-[1,3]oxazolo[4,5-b]pyridin-2-yl)piperazin-1-yl]methanone]",379
2,"Cc1ccc2oc(N3CCN(C(=O)c4ccc(OCC5(C(F)(F)F)CC5)c(-c5ccc(CO)cc5)c4)CC3)nc2n1 [Example 183, [3-[4-(hydroxymethyl)phenyl]-4-[[1-(trifluoromethyl)cyclopropyl]methoxy]phenyl]-[4-(5-methyl-[1,3]oxazolo[4,5-b]pyridin-2-yl)piperazin-1-yl]methanone]",10
3,"Cc1ccc2oc(N3CCN(C(=O)c4ccc(OCCC(F)(F)F)c(-c5ccc(CO)cc5)c4)CC3)nc2n1 [Example 184, [3-[4-(hydroxymethyl)phenyl]-4-(3,3,3-trifluoropropoxy)phenyl]-[4-(5-methyl-[1,3]oxazolo[4,5-b]pyridin-2-yl)piperazin-1-yl]methanone]",78
4,"Cc1ccc2oc(N3CCN(C(=O)c4cc(OCC5(C(F)(F)F)CC5)cc(-c5ccc(CO)cc5)c4)CC3)nc2n1 [Example 185, [3-[4-(hydroxymethyl)phenyl]-5-[[1-(trifluoromethyl)cyclopropyl]methoxy]phenyl]-[4-(5-methyl-[1,3]oxazolo[4,5-b]pyridin-2-yl)piperazin-1-yl]methanone]",302
5,"Cc1ccc2oc(N3CCN(C(=O)c4ccc(-c5noc(CC(C)(C)C)n5)c(-c5ccc(CO)cc5)c4)CC3)nc2n1 [Example 186, [4-[5-(2,2-dimethylpropyl)-1,2,4-oxadiazol-3-yl]-3-[4-(hydroxymethyl)phenyl]phenyl]-[4-(5-methyl-[1,3]oxazolo[4,5-b]pyridin-2-yl)piperazin-1-yl]methanone]",12
6,"Cc1ccc2oc(N3CCN(C(=O)c4ccc(OCC5(C)CC5)c(-c5ccc(CO)cc5)c4)CC3)nc2n1 [Example 187, [3-[4-(hydroxymethyl)phenyl]-4-[(1-methylcyclopropyl)methoxy]phenyl]-[4-(5-methyl-[1,3]oxazolo[4,5-b]pyridin-2-yl)piperazin-1-yl]methanone]",9
7,"Cc1ccc2oc(N3CCN(C(=O)c4cc(OCC5(C)CC5)cc(-c5ccc(CO)cc5)c4)CC3)nc2n1 [Example 188, [3-[4-(hydroxymethyl)phenyl]-5-[(1-methylcyclopropyl)methoxy]phenyl]-[4-(5-methyl-[1,3]oxazolo[4,5-b]pyridin-2-yl)piperazin-1-yl]methanone]",165
8,"CC(C)(C)c1nc(-c2ccc(C(=O)N3CCN(c4nc5nc(C6CC6)ccc5o4)CC3)cc2)no1 [Example 189, (4-(5-(tert-butyl)-1,2,4-oxadiazol-3-yl)phenyl)(4-(5-cyclopropyloxazolo[4,5-b]pyridin-2-yl)piperazin-1-yl)methanone]",2490
9,"O=C(c1ccc(N2CC3(CCCO3)C2)cc1)N1CCN(c2nc3ncccc3o2)CC1 [Example 192, (4-(5-oxa-2-azaspiro[3.4]octan-2-yl)phenyl)(4-(oxazolo[4,5-b]pyridin-2-yl)piperazin-1-yl)methanone]",4120
10,"CC(OC1CN(c2ccc(C(=O)N3CCN(c4nc5ncccc5o4)CC3)cc2)C1)C(F)(F)F (stereo not shown) [Example 193, (4-(oxazolo[4,5-b]pyridin-2-yl)piperazin-1-yl)(4-(3-((1,1,1-trifluoropropan-2-yl)oxy)azetidin-1-yl)phenyl)methanone]",355
11,"CC(C)(C)OC1CN(c2ccc(C(=O)N3CCN(c4nc5nc(Cl)ccc5o4)CC3)cc2)C1 [Example 204, (4-(3-(tert-butoxy)azetidin-1-yl)phenyl)(4-(5-chlorooxazolo[4,5-b]pyridin-2-yl)piperazin-1-yl)methanone]",18

# Results, then the compound that gave them:
row,IC50 [nM],SMILES
1,486,"Cc1ccc2oc(N3CCN(C(=O)c4ccc(N5CC6(CCCO6)C5)cc4)CC3)nc2n1 [Example 194, (4-(5-oxa-2-azaspiro[3.4]octan-2-yl)phenyl)(4-(5-methyloxazolo[4,5-b]pyridin-2-yl)piperazin-1-yl)methanone]"
2,39,"Cc1ccc2oc(N3CCN(C(=O)c4ccc(N5CC(OC(C)C(F)(F)F)C5)cc4)CC3)nc2n1 (stereo not shown) [Example 195, (4-(5-methyloxazolo[4,5-b]pyridin-2-yl)piperazin-1-yl)(4-(3-((1,1,1-trifluoropropan-2-yl)oxy)azetidin-1-yl)phenyl)methanone]"
3,441,"O=C(c1ccc(N2CC(Oc3ccccc3)C2)cc1)N1CCN(c2nc3ncccc3o2)CC1 [Example 196, (4-(oxazolo[4,5-b]pyridin-2-yl)piperazin-1-yl)(4-(3-phenoxyazetidin-1-yl)phenyl)methanone]"
4,471,"COc1ccc2oc(N3CCN(C(=O)c4ccc(-c5noc(C(C)(C)C)n5)cc4)CC3)nc2n1 [Example 197, (4-(5-(tert-butyl)-1,2,4-oxadiazol-3-yl)phenyl)(4-(5-methoxyoxazolo[4,5-b]pyridin-2-yl)piperazin-1-yl)methanone]"
5,46,"Cc1ccc2oc(N3CCN(C(=O)c4ccc(N5CC(Oc6ccccc6)C5)cc4)CC3)nc2n1 [Example 198, (4-(5-methyloxazolo[4,5-b]pyridin-2-yl)piperazin-1-yl)(4-(3-phenoxyazetidin-1-yl)phenyl)methanone]"
6,625,"Cc1ccc2oc(N3CCN(C(=O)c4ccc(OCc5cccc(Cl)c5)c(-c5ncc[nH]5)c4)CC3)nc2n1 [Example 199, [4-[(3-chlorophenyl)methoxy]-3-(1H-imidazol-2-yl)phenyl]-[4-(5-methyl-[1,3]oxazolo[4,5-b]pyridin-2-yl)piperazin-1-yl]methanone]"
7,15,"Cc1ccc2oc(N3CCN(C(=O)c4ccc(N5CC(O[C@@H](C)C(F)(F)F)C5)cc4)CC3)nc2n1 [Example 200, (S)-(4-(5-methyloxazolo[4,5-b]pyridin-2-yl)piperazin-1-yl)(4-(3-((1,1,1-trifluoropropan-2-yl)oxy)azetidin-1-yl)phenyl)methanone]"
8,38,"Cc1ccc2oc(N3CCN(C(=O)c4ccc(N5CC(O[C@H](C)C(F)(F)F)C5)cc4)CC3)nc2n1 [Example 201, (R)-(4-(5-methyloxazolo[4,5-b]pyridin-2-yl)piperazin-1-yl)(4-(3-((1,1,1-trifluoropropan-2-yl)oxy)azetidin-1-yl)phenyl)methanone]"
9,14,"O=C(c1ccc(N2CCC3(C2)CC3(F)F)cc1)N1CCN(c2nc3nc(Cl)ccc3o2)CC1 (stereo not shown) [Example 202, [4-(5-chloro-[1,3]oxazolo[4,5-b]pyridin-2-yl)piperazin-1-yl]-[4-(2,2-difluoro-5-azaspiro[2.4]heptan-5-yl)phenyl]methanone]"
10,35,"O=C(c1ccc(N2CC3(CCC3(F)F)C2)cc1)N1CCN(c2nc3nc(Cl)ccc3o2)CC1 [Example 203, [4-(5-chloro-[1,3]oxazolo[4,5-b]pyridin-2-yl)piperazin-1-yl]-[4-(7,7-difluoro-2-azaspiro[3.3]heptan-2-yl)phenyl]methanone]"
11,5,"CCC(C)(C)OC1CN(c2ccc(C(=O)N3CCN(c4nc5nc(Cl)ccc5o4)CC3)cc2)C1 [Example 205, (4-(5-chlorooxazolo[4,5-b]pyridin-2-yl)piperazin-1-yl)(4-(3-(tert-pentyloxy)azetidin-1-yl)phenyl)methanone]"
